Reference: patent US20100075917A1, “THIONUCLEOSIDES AND PHARMACEUTICAL APPLICATIONS” (priority 2006, published 2010)
Read-outs that look alike come from different tables or passages of the source.

Columns and labels:
[1] = tested on: MCF-7 mammary carcinoma cells; assay: Cytotoxicity (MTT) on MCF-7 cells; assay type: cell-based, human; conditions: Homo sapiens; for CC50: MCF7, read-out: CC50 MCF-7
Protocol: (§1) The cytotoxic effect of a compound is studied on human CEM cells and MCF-7 mammary carcinoma cells that are or are not resistant to gemcitabine, which is an anticancer nucleoside used in chemotherapy.
(§2) The cytotoxicity (CC50) was estimated by measuring the reduction of 3-(4,5-dimethylthiazol-2-yl)-2,5-diphenyltetrazolium bromide (MTT), which is converted into insoluble violet formazan. To do this, 100 000 cells (human CEM-SS or MCF-7 lines) are inoculated per well in 100 μl of culture medium, in 96-well microtitration plates. After 24 hours, the test products are added in 100 μl and incubation is continued for 48 to 72 hours. MIT is then added in a proportion of 20 μl of a solution at 5 mg/ml in PBS. Three hours later, 100 μl of a DMF/acetic acid/HCl/SDS (sodium dodecyl sulfate) solution are added. After 3 hours at 37° C., the absorbance of the formazan is measured at 590 nm and compared with that of the untreated control.

human CEM cells = assay: Cytotoxicity (MTT) on CEM cells; assay type: cell-based; conditions: for CC50: read-out: CC50 CEM; for EC50: Tables 4 and 6, CEM cells, some values 'then plateau'
Protocol: as §1, §2

[2] = tested on: human CEM-SS T lymphoma cells; assay: Measurement of the intracellular concentrations of 2′-deoxyribonucleotides (dNTP); assay type: cell-based; conditions: 24 hours; for activity at 50 µM: 1 at 50 μM
Protocol: The protocol adopted for performing this test (Roy, B.; Beuneu, C.; Roux, P.; Buc, H.; Lemaire, G.; Lepoivre, M. Simultaneous determination of pyrimidine or purine deoxyribonucleoside triphosphates using a polymerase assay. Anal. Biochem., 1999, 269, 403-409) consists in culturing human CEM-SS T lymphoma cells in the presence of the test compounds. The concentrations of dNTP and in particular of dATP are measured after 24 hours of incubation. dATP is the nucleoside triphosphate whose concentration decreases the most during tests with standard ribonucleotide reductase inhibitors such as hydroxyurea, which was used as control.
The quantification is related to the number of live cells counted after staining with trypan blue or related to the initial number of cells (approximately two million). It is measured as a percentage relative to a control manipulation.
The effects of compound 1 at 50 μM on the concentrations of 2′-deoxynucleoside 5′-triphosphates (dNTP) necessary for DNA synthesis are calculated from the dNTP concentrations measured after 24 hours and determined in pmol of dNTP/million cells. The percentages are expressed as a percentage of the control with an average of four controls, taking the counts into account, and are compared with that of an anticancer agent, hydroxyurea (HU), tested at a concentration of 63 μM.

[3] = tested on: L1210 cell line (mouse lymphoma); assay: Incorporation of tritiated thymidine; assay type: cell-based; conditions: L1210 cells
Protocol: These tests are performed on the L1210 cell line (mouse lymphoma) according to a published protocol (Lepoivre M., Flaman J.-M., Bobé P., Lemaire G., Henry Y. J. Biol. Chem., 1994, 269, 21891-21897). The wells are inoculated (10 000 cells per well) and, after culturing for 72 hours, [^3H]thymidine and the test compound are added to the culture medium. After incubation for 8 hours, the DNA is separated from the other cell constituents and the amount of labeled thymidine incorporated is quantified and compared with a control (without compound).
The effects of compound 1 at 50 μM and 200 μM, respectively, on the concentrations of tritiated thymidine incorporated are expressed as a percentage of the control.

[4] = tested on: MCF-7* (MCF-7 mammary carcinoma cells resistant to gemcitabine); assay: Cytotoxicity (MTT) on gemcitabine-resistant MCF-7 cells; assay type: cell-based, human; conditions: listed as printed twice per table
Protocol: as §1, §2
Compounds 1 and 3 to 8 corresponding to formula (II) above; compound 2 corresponding to the non-silyl compound, it corresponds to formula (II) above in which R1 represents CH2CH2CH(CH3)2 and was also tested to observe a possible effect of the silicon. These compounds were evaluated for their cytotoxicity on human CEM cells and MCF-7 mammary carcinoma cells resistant (MCM-7*) or non-resistant (MCF-7) to gemcitabine, which is an anticancer nucleoside used in chemotherapy.

[5] = tested on: FM3A/0 murine mammary carcinoma cells; assay: Cytotoxic effect on FM3A/0 cells; assay type: cell-based; set-up: unit not given beside the values; conditions: Tables 5 and 7, FM3A/0 cells
[6] = tested on: L1210/0 murine leukemia cells; assay: Cytotoxic effect on L1210/0 cells; assay type: cell-based; conditions: Tables 5 and 7, L1210/0 cells
HIV-1 = assay: Anti-HIV-1 effect in CEM cells; assay type: cell-based; conditions: Human immunodeficiency virus 1, CCRF-CEM
Protocol: (§3) The evaluation test is described in Roy, B.; Chambert, S.; Lepoivre M.; Aubertin, A.-M.; Balzarini, J.; Décout, J.-L., Deoxyribonucleoside 2′- or 3′-mixed disulfides: prodrugs to target ribonucleotide reductase and/or to inhibit HIV reverse transcription. J. Med. Chem. 2003, 46, 2565-2568.
(§4) The toxicity and the antiviral activities were measured at different concentrations, and their evolution as a function of the concentration makes it possible to evaluate: • the concentration at which 50% of the cells are dead in the absence of virus (CC 50) for each of the test compounds, from the change in absorbance at 540 nm of formazan as a function of the concentration of test compound, • the concentration of compound that leads to a 50% reduction in the activity of viral reverse transcriptase (EC 50). This concentration is determined from the curve representing the change in the percentage of “remaining reverse transcriptase” activity (defined as being the ratio of the activity of the reverse transcriptase in the presence of the test compound to that of the untreated cells) as a function of the concentration of test compound.
(§5) EC50: concentration required to afford 50% protection to the CEM cells against the cytopathogenicity of HIV;

human Molt4/C8 cells = assay: Cytotoxic effect on Molt4/C8 cells; assay type: cell-based; conditions: Tables 5 and 7, Molt4/C8 cells
Moloney sarcoma virus = assay: Inhibition of transformation of mouse embryo C3H/3T3 cells induced by Moloney sarcoma virus; assay type: cell-based; set-up: MIC (minimum inhibitory concentration): unit not given here; conditions: for EC50: C3H/3T3, read-out: EC50 (effective concentration 50%); for MIC (minimum inhibitory concentration): C3H/3T3 cells, a second bound is given in brackets for some compounds
Text: 2.2. Inhibitory Effect on the Transformation of Mouse Embryo C3H/3T3 Cells Induced by Moloney Sarcoma Virus (Model of Infection with HIV)

HeLa cells = assay: Cytotoxic effect on HeLa cells; assay type: cell-based; set-up: unit not given beside the values; conditions: Tables 5 and 7, HeLa cells
HIV-2 [7] = assay: Anti-HIV-2 effect in CEM cells; assay type: cell-based; conditions: Human immunodeficiency virus 2, CCRF-CEM, read-out: EC50 HIV-2
Protocol: as §3, §4, §5

human CEM T4 lymphocytes = assay: Cytotoxic effect on CEM T4 lymphocytes; assay type: cell-based; set-up: unit not given beside the values; conditions: Tables 5 and 7, CEM cells
HIV-2 [8] = assay: Anti-HIV-2 effect in CEM/TK− cells; assay type: cell-based; conditions: Human immunodeficiency virus 2, CEM-TK(-); Third Series; CEM cells having no thymidine kinase activity
Protocol: as §3, §4, §5
• Effect in CEM not expressing thymidine kinase activity (CEM/TK^−, cells having no thymidine kinase activity).

[9] = Cytotoxic concentration in CEM cells (antiviral tests); assay type: cell-based, human; conditions: human; First and Second Series, second table; viability of CEM cells
Protocol: as §4
(§6) CC50: cytotoxic concentration or concentration required to reduce the viability of the CEM cells by 50%.

CEM cells = assay: as above; assay type: cell-based, human; conditions: First and Second Series, second table; viability of CEM cells
Protocol: as §4, §6

[10] = Homo sapiens, MCF7, MCF-7 resistant to gemcitabine
[11] = First and Second Series, second table, read-out: EC50 HIV-1
[12] = Third Series, read-out: EC50 HIV-1
[13] = First and Second Series, second table, CEM cells

SMILES | cytotoxic effect, FM3A/0 [5] | EC50 (human CEM cells; Homo sapiens, CCRF-CEM) | cytotoxic effect, L1210/0 [6] | EC50 (HIV-1; [11]) | EC50 (HIV-1; [12]) | cytotoxic effect, Molt4/C8 (human Molt4/C8 cells) | EC50 (Moloney sarcoma virus) | MIC (minimum inhibitory concentration) (Moloney sarcoma virus) | cytotoxic effect, HeLa (HeLa cells) | EC50 (HIV-2 [7]; [13]) | EC50 (HIV-2 [7]; Third Series, CEM cells) | cytotoxic effect, CEM (human CEM T4 lymphocytes) | EC50 (HIV-2 [8]) | CC50 [9] | also measured
C[Si](C)(C)CCSC1=C[C@@H](CO)O[C@H]1n1ccc(=O)[nH]c1=O [Compound 1, 2′,3′-Didehydro-2′,3′-dideoxy-2′-(2-trimethylsilyl)ethylthiouridine] |  |  |  |  |  |  |  |  |  |  |  |  |  |  | CC50 [1]: 69 µM; CC50 (human CEM cells; Homo sapiens, CCRF-CEM): 156 µM; activity at 50 µM ([2]; read-out: dATP concentration, % of control): 50%; activity at 50 µM ([2]; read-out: dCTP concentration, % of control): 42%; activity at 50 µM ([2]; read-out: dGTP concentration, % of control): 31%; activity at 50 µM ([2]; read-out: dTTP concentration, % of control): 85%; decrease of the incorporation of tritiated thymidine into the DNA ([3]; 50 μM): 38%; tritiated thymidine incorporated as a percentage of the control ([3]; 50 μM): 62%; decrease of the incorporation of tritiated thymidine into the DNA ([3]; 200 μM): 86%; tritiated thymidine incorporated as a percentage of the control ([3]; 200 μM): 14%
Cc1cn([C@@H]2O[C@H](CO)C=C2SCC[Si](C)(C)C)c(=O)[nH]c1=O [Compound 3] |  |  |  |  |  |  |  |  |  |  |  |  |  |  | CC50 [1]: 40 µM; CC50 (human CEM cells; Homo sapiens, CCRF-CEM): 13 µM; EC50 [4, 10]: 37 µM; EC50 ([4]; MCF-7 resistant to gemcitabine): 41 µM
O=c1ccn([C@@H]2O[C@H](CO)C=C2SSC(Cl)(Cl)Cl)c(=O)[nH]1 [Compound 13, 2′,3′-didehydro-2′,3′-dideoxyuridin-2′-yl trichloromethyl disulfide] |  |  |  |  |  |  |  |  |  |  |  |  |  |  | EC50 ([1]; MCF7, Table 4, MCF-7): 194 µM; EC50 [4, 10]: 177 µM; EC50 ([4]; MCF-7 resistant to gemcitabine): 194 µM
Cc1cn([C@H]2CC(SSCCCCCCO)[C@@H](CO)O2)c(=O)[nH]c1=O (some centres unmarked) [Compound 18] | ≧500 | 152 µM | 44 ± 1 | 10.3 ± 5.7 µM | 22.5 ± 3.5 µM | 66 ± 9 | 8.3 ± 2.3 µM | >100 | 56 ± 8 | 11.7 ± 2.9 µM | 17.5 ± 11 µM | 187 ± 1 | > 50 µM | 107 ± 7 µM | EC50 (HIV-1; read-out: EC50 HIV-1, First and Second Series, first table): 4 µM; EC50 (HIV-2 [7]; First and Second Series, first table, CEM cells): 6.5 ± 0.7 µM
C=CCSS[C@H]1C[C@H](n2cc(C)c(=O)[nH]c2=O)O[C@@H]1CO [Compound 20, 3′-deoxythymidin-3′-yl allyl disulfide] | 299 ± 45 | 48 µM | 43 ± 5 | 12.5 ± 3.5 µM | 17.5 ± 3.5 µM | 34 ± 6 | 2.2 ± 0.3 µM | 100 | 40 ± 7 | 15 ± 7 µM | 20 ± 7 µM | 128 ± 18 | > 50 µM | 53 ± 7 µM | EC50 (human CEM cells): 46 µM
Cc1cn([C@H]2C[C@H](SSCCO)[C@@H](CO)O2)c(=O)[nH]c1=O [Compound 21, 3′-deoxythymidin-3′-yl 2-hydroxyethyl disulfide] | >500 | > 200 µM | 26 ± 3 | 13.5 ± 3 µM | 17.5 ± 3.5 µM | 128 ± 33 | 5.9 ± 0.5 µM | >100 | ≧100 | 14 ± 7 µM | 15 ± 7 µM | 347 ± 71 | > 50 µM | > 250 µM | 
CCCCSS[C@H]1C[C@H](n2cc(C)c(=O)[nH]c2=O)O[C@@H]1CO [Compound 24, 3′-deoxythymidin-3′-yl butyl disulfide] | 286 ± 24 |  | 32 ± 0 | 8 ± 3 µM | > 10 µM | 28 ± 7 | 1 ± 0.5 µM | 100 | 23 ± 2 | > 10 µM | > 10 µM | 44 ± 1 | > 10 µM |  | CC50 (CEM cells): 23.3 ± 0.6 µM
Cc1cn([C@H]2C[C@H](SSCCN)[C@@H](CO)O2)c(=O)[nH]c1=O.Cl [Compound 27, 3′-deoxythymidin-3′-yl 2-aminoethyl disulfide hydrochloride] | >500 |  | 65 ± 9 | 27.5 ± 3.5 µM | 20 µM | 163 ± 41 |  |  | >100 |  |  | 437 ± 71 | 150 µM | > 250 µM | EC50 (HIV-2 [7]): 27.5 ± 3.5 µM
NC(=O)NO [Hydroxyurea, hydroxyurea, reference compound] |  |  |  |  |  |  |  |  |  |  |  |  |  |  | activity at 63 µM ([2]; Hydroxyurea control, 63 μM, read-out: dTTP concentration, % of control): 51%
